Here are results for four compounds from US8030315B2, “DPP-IV inhibitor including beta-amino group, preparation method thereof and pharmaceutical composition containing the same for preventing and treating diabetes or obesity” (Dong-A Pharm. Co., Ltd., priority 2007, dated 2011).

Each structure is given as a SMILES string.

What is called half-life is the time needed for the level to fall by half in the phase considered.

Data set [1] can be described thus: In vivo kinetic experiments (half-life). The conditions noted are these: SD, rat, blood, po, 10 mg/kg.
Another data set concerns C57BL/6 mice. In words: Oral glucose tolerance test (OGTT). The format is in vivo. The conditions noted are these: dose of 1 mg/kg, compared to the control group. The procedure:
Blood was collected from caudal veins of animals in the morning on the day of the experiment and a blood glucose level was measured with an Accu-Chek Active Blood Glucose Meter (Roche Diagnostics). […] Blood collection was made at designated time points—just prior to drug administration, just prior to glucose administration, and 5, 15, 30, 60 and 90 min after glucose administration.

The compound `N[C@@H](CC(=O)N1CCn2c(nnc2C(F)(F)F)C1)Cc1cc(F)c(F)cc1F` [MK-0431, reference compound] had a half-life in data set [1] of 4.8 h. In data set [1], `CCOC[C@@H]1C(=O)NCCN1C(=O)C[C@H](N)Cc1cc(F)c(F)cc1F.Cl` [Example 3, (R)-4-[(R)-3-amino-4-(2,4,5-trifluorophenyl)butanoyl]-3-(ethoxymethyl)piperazin-2-one hydrochloride] showed a half-life of 7.6 h. Besides, the blood glucose-lowering effects in the data set on C57BL/6 mice is 52%. Taken in the same sequence, the figures for `CC(C)(C)OC[C@@H]1C(=O)NCCN1C(=O)C[C@H](N)Cc1cc(F)c(F)cc1F.O=C(O)C(O)C(O)C(=O)O` [Example 12, (R)-4-[(R)-3-amino-4-(2,4,5-trifluorophenyl)butanoyl]-3-(t-butoxymethyl)piperazin-2-one tartrate] were 5.5 h and 62%. In turn, `CC(C)(C)OC[C@@H]1C(=O)NCCN1C(=O)C[C@H](N)Cc1cc(F)c(F)cc1F.Cl` [Example 1, (R)-4-[(R)-3-amino-4-(2,4,5-trifluorophenyl)butanoyl]-3-(t-butoxymethyl)piperazin-2-one hydrochloride] had a half-life in data set [1] of 7.9 h. The compound also yielded a blood glucose-lowering effects in the data set with C57BL/6 mice of 54%.
